From patent US10537552B2, “Substituted 5-hydroxyoxindoles and their use as analgesics and fever reducers” (CARAFE DRUG INNOVATION, LLC, priority 2015, dated 2020)
“And” between values parts separate entries of the source, which are not always exact repeats. Equal values may be shown once.

What was measured:
[1] = test system: acetic acid-induced writhing responses; test: acetic acid writhing test (abdominal irritant test), Example 10; assay type: in vivo, C57/B16 mice
Experimental: This example compares the antinociception (animal equivalent of analgesia) produced by the oral administration of 5-hydroxy-7-methyloxindole vs. acetaminophen. Initial studies were performed using 10% DMSO/Cremophor™ as the vehicle. To enable a comparison with other datasets, 5-hydroxy-7-methyloxindole was subsequently tested using 6% Tween 20® reagent as the vehicle.
Male C57/B16 mice (Taconic), 8 weeks of age, were used in this study. The mice were received at Drexel University at least one week prior to testing and housed in standard polycarbonate cages with filter tops. Experiments were done in accordance with the guidelines of the National Institutes of Health and with the guidelines of the Committee for Research and Ethical Issues of IASP and were approved by the Animal Care and Use Committee of Drexel University College of Medicine. Four to five animals were housed per cage and food and water were provided ad libitum. Prior to initiation of the study, the animals were examined to assure adequate health and suitability. Mice were maintained on a 12/12 light/dark cycle and room temperature was maintained between 20 and 23° C. with a relative humidity maintained between 30% and 70%.
Compounds were administered orally 10 mL/kg, with a 30 minute pretreatment time. All compounds were tested in naïve animals. […] Each compound was dissolved in DMSO as a stock solution and mixed with Cremophor™ (1:1 v/v) before testing. The mixed solutions were diluted 1:4 with sterile water (the final concentration of DMSO/Cremophor™ reagent was 10%) immediately before administration to maximize the amount of compound in solution and improve the uniformity of any compound substance remaining in suspension. It is possible that some of the drug was in suspension at the time of administration. Each compound was initially tested in 5 mice at a dose of 300 mg/kg in the writhing test to assess their ability to alleviate abdominal pain. Based on the results of the initial test, the dose-response relationship for each active compound was determined by measuring the level of analgesia produced by at least 3 escalating doses of the test compound. The measurement of inhibition of writhing for acetaminophen and 5-hydroxy-7-methyloxindole were repeated using 6% Tween® 20 reagent as the vehicle. In this case, both compounds were clearly in suspension when administered to the animals.
A modified version of the standard abdominal irritant test was used to assess analgesia. Mice were habituated for 1 h in a transparent test box (5×5×10 inches) before any injections. Vehicle or test compound was administered p.o. (per os) 30 min prior to an intraperitoneal (i.p.) injection of 0.6% acetic acid (10 mL/kg) and the number of writhing responses (stretching of the hind limbs accompanied by a contraction of the abdominal muscles) to the acetic acid injection were counted over the subsequent 30 min period. The mice from each cage were randomly assigned to the dosing groups and the mice from each group were injected in a random order.
The one-way ANOVA was used to determine significant difference from the vehicle control treated animal. Dose response data for 5-hydroxy-7-methyloxindole was fit by non-linear regression analysis to a logit model to provide an estimate of ED50.

[2] = test system: liver (acute liver toxicity); test: plasma aminotransferase activity (ALT, AST) after intragastric dosing; assay type: in vivo, C57BL/6 mice; conditions: for AST / ALT: individual mice 1-8; for ALT, Mean / AST, Mean: mean of 8 mice; for hepatotoxicity, overall assessment (ALT, AST, pathohistology): mice, intragastric, summary statement
Experimental: This example was performed to determine if acute liver toxicity results from oral administration of 5-hydroxy-7-methyloxindole (CaRafe Drug Innovation, LLC) compared to the known acute liver toxicity produced by acetaminophen.
Acetaminophen was acquired from Sigma-Aldrich Corp. (St. Louis, Mo., USA); 5-hydroxy-7-methyloxindole was provided by CaRafe Drug Innovation, LLC (Norristown, Pa., USA) in the form of a powder. […] Based on the efficacy testing performed at Drexel University, 5-hydroxy-7-methyloxindole was suspended in 6% Tween® 20 reagent with vortexing. This procedure provided a crude suspension, but it precipitated after some time, therefore vortexing was repeated prior to each injection. Acetaminophen was prepared in the same vehicle (6% Tween® 20 reagent) using light magnetic stirring.
Ten-week old male C57BL/6 mice were used in all of the experiments. All protocols were approved before study initiation by the Ethics Committee of University of Zagreb School of Medicine (Zagreb, Croatia) and the study was conducted in accordance with accepted standards of humane animal care.
In all experiments, mice were fasted overnight and then allocated randomly to receive either acetaminophen or equimolar dose of 5-hydroxy-7-methyloxindole by the intragastric route. Food was returned 4 h after the treatment. The two experimental groups were:
(a) Lower-dose group: Mice were administered acetaminophen (300 mg/kg) or 5-hydroxy-7-methyloxindole (324 mg/kg). After 7 h, the mice were sacrificed and liver and blood samples were taken for the analysis.
Seven hours after receiving the second injection, mice were sacrificed and liver and blood samples were taken for analysis.
After collection, the blood samples were centrifuged, and plasma was separated and stored at −80° C. for 24 h. Activities of ALT (alanine transaminase) and of AST (aspartate transaminase) in plasma were determined using standard laboratory techniques in a clinical diagnostic laboratory.

[3] = 5-hydroxy-7-methyloxindole 324 mg/kg intragastric, 7 h

Cc1cc(O)cc2c1NC(=O)C2 [5-hydroxy-7-methyloxindole, 5-Hydroxy-7-methyloxindole]
inhibition of acetic acid-induced response (writhing) ([1]; C57/B16 mice, p.o. 30 min before i.p. 0.6% acetic acid, 10% DMSO/Cremophor vehicle, 30 to 300 mg/kg, FIG. 2, 3): robust and dose-related inhibition | inhibition of acetic acid-induced response (writhing) ([1]; C57/B16 mice, p.o., 6% Tween 20 vehicle (suspension), 100 and 300 mg/kg, FIG. 5, 6): the highest dose produced an effect comparable to that observed with the DMSO/Cremophor™ vehicle | ED50 ([1]; Mus musculus, po, C57/B16 mice, p.o., 10% DMSO/Cremophor vehicle, FIG. 4, read-out: ED50 (logit model fit of dose-response)): 76 mg/kg | oral antinociceptive (analgesic) effect compared with acetaminophen ([1]; mouse model, oral, summary statement): equal to, and was slightly more potent than, acetaminophen | ALT and AST levels, in words ([2]; higher-dose protocol: two cumulative injections 2.5 h apart, 7 h after second injection): normal or only minimally elevated levels of ALT and AST | AST ([2]; 5-hydroxy-7-methyloxindole 324 mg/kg intragastric, 7 h after treatment): 80 U/L (2×) and 60 U/L (2×) and 120 U/L and 330 U/L and 170 U/L and 90 U/L | ALT ([2]; 5-hydroxy-7-methyloxindole 324 mg/kg intragastric, 7 h after treatment, 6% Tween 20): 30 U/L (5×) and 20 U/L and 50 U/L (2×) | AST ([2]; 5-hydroxy-7-methyloxindole 540 mg/kg total (two 270 mg/kg) intragastric, 7 h after second injection): 60 (2×) and 120 (3×) and 100 and 70 and 110 | ALT ([2]; 5-hydroxy-7-methyloxindole 540 mg/kg total (two 270 mg/kg, 2.5 h apart) intragastric, 7 h after second injection): 20 (3×) and 30 (3×) and 50 (2×) | ALT and AST levels / liver damage, in words ([2]; lower-dose protocol: acetaminophen 300 mg/kg or 5-hydroxy-7-methyloxindole 324 mg/kg, 7 h): normal or only minimally elevated | ALT, Mean [2, 3]: 34 U/L | AST, Mean [2, 3]: 124 U/L | AST, Mean ([2]; 5-hydroxy-7-methyloxindole 540 mg/kg total, 7 h after second injection): 95 U/L | ALT, Mean ([2]; 5-hydroxy-7-methyloxindole 540 mg/kg total, 7 h after second injection, in U/L): 31.25 | hepatotoxicity, overall assessment (ALT, AST, pathohistology) ([2]; 6% Tween 20): devoid of hepatotoxic effect | hepatotoxicity, overall assessment (ALT, AST, pathohistology) ([2]; 6% Tween 20, listed as 5-Hydroxy-7-methyloxindole): significantly less hepatotoxicity than acetaminophen
